Target: T1, XylA (Aspergillus oryzae, UniProt Q2UR38)
T1 construct: gene xlnD; codon-optimized gene, N-terminal S. cerevisiae SED1 secretory signal peptide, expressed from X2 locus of S. cerevisiae CEN.PK XXX; secretome, intact cells and lysate assayed
T1 sequence (Q2UR38 21-798): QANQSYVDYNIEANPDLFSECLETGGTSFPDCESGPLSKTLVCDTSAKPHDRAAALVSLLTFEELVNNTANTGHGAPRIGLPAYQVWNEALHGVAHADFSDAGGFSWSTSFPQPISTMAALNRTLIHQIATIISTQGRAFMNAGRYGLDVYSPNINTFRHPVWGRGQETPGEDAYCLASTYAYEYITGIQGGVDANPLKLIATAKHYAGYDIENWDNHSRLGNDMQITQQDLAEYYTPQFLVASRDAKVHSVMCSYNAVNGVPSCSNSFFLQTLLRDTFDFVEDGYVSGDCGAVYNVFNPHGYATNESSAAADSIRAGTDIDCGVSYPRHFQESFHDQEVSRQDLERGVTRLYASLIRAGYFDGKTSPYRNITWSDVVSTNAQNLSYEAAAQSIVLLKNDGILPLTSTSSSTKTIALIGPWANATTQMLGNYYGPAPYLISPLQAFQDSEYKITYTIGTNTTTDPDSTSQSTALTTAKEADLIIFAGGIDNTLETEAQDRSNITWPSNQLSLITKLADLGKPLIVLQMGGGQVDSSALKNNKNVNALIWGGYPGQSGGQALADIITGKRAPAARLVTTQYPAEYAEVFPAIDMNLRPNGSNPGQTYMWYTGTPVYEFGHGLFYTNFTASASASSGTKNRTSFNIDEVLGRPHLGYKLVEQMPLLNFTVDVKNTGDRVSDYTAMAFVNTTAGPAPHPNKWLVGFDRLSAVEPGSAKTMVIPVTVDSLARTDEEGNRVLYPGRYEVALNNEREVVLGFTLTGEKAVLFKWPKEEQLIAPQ
Experiment: p-nitrophenol release at […] nm, secretome / cell / intracellular fractions of XylA strain versus parent XXX strain
Assay type: cell-based
Details: 5 mM substrate, 20 mM sodium phosphate pH 7, 30 °C, 30 min

O=[N+]([O-])c1ccc(O[C@@H]2OC[C@@H](O)[C@H](O)[C@H]2O)cc1 [p-nitrophenyl-β-D-xylopyranoside]
p-nitrophenol release at 405 nm, secretome / cell / intracellular fractions of X: subcellular β-xylosidase activity quantified using p-nitrophenyl-β-D-xylopyranoside

From publication PMC10943827, “Engineering Saccharomyces cerevisiae for targeted hydrolysis and fermentation of glucuronoxylan through CRISPR/Cas9 genome editing” (Microbial Cell Factories, 2024)
